In one experiment the target is T1, CYP 2D6 (Homo sapiens, UniProt P10635).
T1 construct: followed by 555.6 ml of 20 mg/mL HLM (BD Gentest); tissue BD Gentest; host or cells: human liver microsomes
The experiment in a line: Human Liver Microsome CYP 2D6 Inhibition. It is filed as in vitro ADME. The note with it: human liver microsomes, bufuralol substrate; read-out: inhibited CYP2D6 microsomes, IC50. As to the method: Determining the IC-50 for Human Liver Microsome CYP 2D6 Inhibition
Postassium Phosphate Buffer pH 7.4 (39.333 mL) is chilled in an ice bath and added to a 50 ml plastic tube. A 3.2 mM bufuralol solution is prepared. 111.1 ul of 3.2 mM bufuralol is added to the buffer followed by 555.6 ml of 20 mg/mL HLM (BD Gentest). The incubation mixture was gently inverted and equilibrated at 37° C. for 5 min. A stock inhibitor solution is prepared, such as in DMSO. Incubation mixture (801 ul) is added into 96-well, 1.2 mL plastic tubes. Inhibitor is added at various concentrations (e.g. 30 μM to […]). The tubes are sealed and mix by inverting 5 times gently. The incubation mixture containing inhibitor (270 μL) is added by aliquot into wells of a 1 mL, 96-well block (duplicate). The block is placed into a 37° C. water bath and equilibrated for 3 minutes. 10 mM NADPH (30 ml) is added to all samples. After 5 min, the reactions are stopped by adding 300 ml of Quench Solution [0.1% TFA in CH3CN]. 1′-OH-bufuralol-d9 (750 ng/mL 30 μL) is added, the block is gently vortexed then centrifuged at 3000 rpm for 10 min at 4° C. 50 μL of supernatant from all samples is added by aliquot into a shorter, 96-well block. The aliquoted supernatants are pooled with other assay(s) and HPLC Grade Water (50 μL) is added to all samples. After covering and shaking by vortex gently for 2 minutes, the solutions were analyzed by LC-MS (API 3000, 5% MeOH w/0.1% AcOH to 95% MeOH w/0.1% AcOH). 500 nM quinidine is used as a control.
In general terms: Liver microsomes are a subcellular fraction often used to study metabolism.

Experiment [1] concerns VEGF-stimulated HUVEC proliferation (Human Umbilical Vein Endothelial cells). The experiment in a line: HUVEC Proliferation Assay. It is filed as cell-based. The note with it: VEGF 50 ng/mL, 72 h, CyQuant fluorescent dye, read-out: inhibited VEGF-stimulated HUVEC proliferation at a level. As for the experimental part: Human Umbilical Vein Endothelial cells are purchased from Clonetics, Inc., as cryopreserved cells harvested from a pool of donors. These cells, at passage 1, are thawed and expanded in EBM-2 complete medium, until passage 2 or 3. The cells are trypsinized, washed in DMEM+10% FBS+antibiotics, and spun at 1000 rpm for 10 min. Prior to centrifugation of the cells, a small amount is collected for a cell count. After centrifugation, the medium is discarded, and the cells are resuspended in the appropriate volume of DMEM+10% FBS+antibiotics to achieve a concentration of 3×10^5 cells/mL. Another cell count is performed to confirm the cell concentration. The cells are diluted to 3×10^4 cells/mL in DMEM+10% FBS+antibiotics, and 100 μL of cells are added to a 96-well plate. The cells are incubated at 37° C. for 22 h.
Prior to the completion of the incubation period, compound dilutions are prepared. Five-point, five-fold serial dilutions are prepared in DMSO, at concentrations 400-fold greater than the final concentrations desired. 2.5 μL of each compound dilution are diluted further in a total of 1 mL DMEM+10% FBS+antibiotics (400× dilution). Medium containing 0.25% DMSO is also prepared for the 0 μM compound sample. At the 22 h time point, the medium is removed from the cells, and 100 μL of each compound dilution is added. The cells are incubated at 37° C. for 2-3 h.
During the compound pre-incubation period, the growth factors are diluted to the appropriate concentrations. Solutions of DMEM+10% FBS+antibiotics, containing either VEGF or bFGF at the following concentrations: 50, 10, 2, 0.4, 0.08, and 0 ng/mL are prepared. For the compound-treated cells, solutions of VEGF at 550 ng/mL or bFGF at 220 ng/mL for 50 ng/mL or 20 ng/mL final concentrations, respectively, are prepared since 10 μL of each will be added to the cells (110 μL final volume). At the appropriate time after adding the compounds, the growth factors are added. VEGF is added to one set of plates, while bFGF is added to another set of plates. For the growth factor control curves, the media on wells B4-G6 of plates 1 and 2 are replaced with media containing VEGF or bFGF at the varying concentrations (50-0 ng/mL). The cells are incubated at 37° C. for an additional 72 h.
At the completion of the 72 h incubation period, the medium is removed, and the cells are washed twice with PBS. After the second wash with PBS, the plates are tapped gently to remove excess PBS, and the cells are placed at −70° C. for at least 30 min. The cells are thawed and analyzed using the CyQuant fluorescent dye (Molecular Probes C-7026), following the manufacturer's recommendations. The plates are read on a Victor/Wallac 1420 workstation at 485 nm/530 nm (excitation/emission). Raw data are collected and analyzed using a 4-parameter fit equation in XLFit. IC50 values are then determined.

T1 sequence (P10635 whole entry): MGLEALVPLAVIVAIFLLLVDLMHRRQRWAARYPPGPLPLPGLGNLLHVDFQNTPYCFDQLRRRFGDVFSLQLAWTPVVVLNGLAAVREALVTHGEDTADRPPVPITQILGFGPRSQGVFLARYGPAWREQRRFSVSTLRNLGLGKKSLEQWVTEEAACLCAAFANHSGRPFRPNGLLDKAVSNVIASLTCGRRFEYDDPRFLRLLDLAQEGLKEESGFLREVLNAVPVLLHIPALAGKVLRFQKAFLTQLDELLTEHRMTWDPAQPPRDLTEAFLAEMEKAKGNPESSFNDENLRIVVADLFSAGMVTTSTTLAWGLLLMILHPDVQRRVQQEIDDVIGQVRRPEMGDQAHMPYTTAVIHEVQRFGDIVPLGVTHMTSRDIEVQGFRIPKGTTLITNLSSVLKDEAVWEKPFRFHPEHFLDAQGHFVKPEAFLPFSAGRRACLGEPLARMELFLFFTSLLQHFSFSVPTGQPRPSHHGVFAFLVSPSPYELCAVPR

Turning to `CC1(C)CN(C(=O)C2CCCO2)Cc2cc(NC(=O)c3cccnc3NCc3ccnc4[nH]ccc34)ccc21` (single isomer, unassigned) [Example 14, N-{4,4-Dimethyl-2-[(2R*)-tetrahydrofuran-2-ylcarbonyl]-1,2,3,4-tetrahydroisoquinolin-7-yl}-2-[(1H-pyrrolo[2,3-b]pyridin-4-ylmethyl)amino]nicotinamide], the IC50 on CYP 2D6 is > 20000 nM; in experiment [1], < 500 nM.

With `CC(=O)N1CC(C)(C)c2ccc(NC(=O)c3cccnc3NCc3ccnc4[nH]ccc34)cc21` [Example 6, N-(1-Acetyl-3,3-dimethyl-2,3-dihydro-1H-indol-6-yl)-2-[(1H-pyrrolo[2,3-b]pyridin-4-ylmethyl)amino]nicotinamide], the values for the IC50 (on CYP 2D6; in experiment [1]) were > 20000 nM and < 500 nM, respectively.

With `CC(=O)N1CC2(CC2)c2ccc(NC(=O)c3cccnc3NCc3ccnc4[nH]ccc34)cc21` [Example 7], the IC50 on CYP 2D6 is > 20000 nM; in experiment [1], < 500 nM.

As to `CC1(C)CC(=O)Nc2cc(NC(=O)c3cccnc3NCc3ccnc4[nH]ccc34)ccc21` [Example 12, N-(4,4-Dimethyl-2-oxo-1,2,3,4-tetrahydroquinolin-7-yl)-2-[(1H-pyrrolo[2,3-b]pyridin-4-ylmethyl)amino]nicotinamide], the IC50 on CYP 2D6 was > 20000 nM; in experiment [1], < 500 nM.

Turning to `CC(=O)N1Cc2cc(NC(=O)c3cccnc3NCc3ccnc4[nH]ccc34)ccc2C(C)(C)C1` [Example 13, N-(2-Acetyl-4,4-dimethyl-1,2,3,4-tetrahydroisoquinolin-7-yl)-2-[(1H-pyrrolo[2,3-b]pyridin-4-ylmethyl)amino]nicotinamide], the IC50 on CYP 2D6 was > 20000 nM; in experiment [1] it was < 500 nM.

As for `CC1(C)CN(C(=O)CN)Cc2cc(NC(=O)c3cccnc3NCc3ccnc4[nH]ccc34)ccc21` [Example 15, N-(2-Glycyl-4,4-dimethyl-1,2,3,4-tetrahydroisoquinolin-7-yl)-2-[(1H-pyrrolo[2,3-b]pyridin-4-ylmethyl)amino]nicotinamide], the IC50 at CYP 2D6 is > 20000 nM.

With `O=C(Nc1ccc(C(F)(F)F)c(Cl)c1)c1cc(F)cnc1NCc1ccnc2[nH]ccc12` [Example 100, N-(3-chloro-4-(trifluoromethyl)phenyl)-5-fluoro-2-((1H-pyrrolo[2,3-b]pyridin-4-ylmethyl)amino)-3-pyridinecarboxamide], the IC50 in experiment [1] was < 500 nM.

Consider `CC1(C)CNCc2cc(NC(=O)c3cc(F)cnc3NCc3ccnc4[nH]ccc34)ccc21` [Example 101, N-(4,4-dimethyl-1,2,3,4-tetrahydro-7-isoquinolinyl)-5-fluoro-2-((1H-pyrrolo[2,3-b]pyridin-4-ylmethyl)amino)-3-pyridinecarboxamide], for which, in experiment [1], the IC50 is < 500 nM.

As for `CC1Sc2ccc(NC(=O)c3cc(F)cnc3NCc3ccnc4[nH]ccc34)cc2NC1=O` (stereo not shown) [Example 108, 5-fluoro-N-(2-methyl-3-oxo-3,4-dihydro-2H-1,4-benzothiazin-6-yl)-2-((1H-pyrrolo[2,3-b]pyridin-4-ylmethyl)amino)-3-pyridinecarboxamide], the IC50 in experiment [1] was < 500 nM.

As to `Cc1ccc(NC(=O)c2cc(F)cnc2NCc2ccnc3[nH]ccc23)cc1` [Example 109, 5-fluoro-N-(4-methylphenyl)-2-((1H-pyrrolo[2,3-b]pyridin-4-ylmethyl)amino)-3-pyridinecarboxamide], the IC50 in experiment [1] is < 500 nM.

On to `Cc1ccc(NC(=O)c2cc(F)cnc2NCc2ccnc3[nH]ccc23)cc1Cl` [Example 110, N-(3-chloro-4-methylphenyl)-5-fluoro-2-((1H-pyrrolo[2,3-b]pyridin-4-ylmethyl)amino)-3-pyridinecarboxamide], for which the IC50 in experiment [1] was < 500 nM.

Regarding `Cc1ccc(NC(=O)c2cc(F)cnc2NCc2ccnc3[nH]ccc23)cc1F` [Example 111, 5-fluoro-N-(3-fluoro-4-methylphenyl)-2-((1H-pyrrolo[2,3-b]pyridin-4-ylmethyl)amino)-3-pyridinecarboxamide], the IC50 in experiment [1] was < 500 nM.

For the compound `CN(C)c1nc2cc(NC(=O)c3cc(F)cnc3NCc3ccnc4[nH]ccc34)ccc2s1` [Example 114, N-(2-(dimethylamino)-1,3-benzothiazol-5-yl)-5-fluoro-2-((1H-pyrrolo[2,3-b]pyridin-4-ylmethyl)amino)-3-pyridinecarboxamide], the IC50 in experiment [1] is < 500 nM.

With `Cc1nc2cc(NC(=O)c3cc(F)cnc3NCc3ccnc4c3CCN4)ccc2s1` [Example 115, 2-((2,3-dihydro-1H-pyrrolo[2,3-b]pyridin-4-ylmethyl)amino)-5-fluoro-N-(2-methyl-1,3-benzothiazol-5-yl)-3-pyridinecarboxamide], the IC50 in experiment [1] is < 500 nM.

Consider `O=C(Nc1ccc(Cl)c(C(F)(F)F)c1)c1cc(F)cnc1NCc1ccnc2[nH]ncc12` [Example 119, N-(4-Chloro-3-(trifluoromethyl)phenyl)-5-fluoro-2-((1H-pyrazolo[3,4-b]pyridin-4-ylmethyl)amino)-3-pyridinecarboxamide], for which the IC50 in experiment [1] was < 500 nM.

With `O=C(Nc1cccc(C(F)(F)F)c1)c1cc(F)cnc1NCc1ccnc2[nH]ncc12` [Example 122, 5-Fluoro-2-((1H-pyrazolo[3,4-b]pyridin-4-ylmethyl)amino)-N-(3-(trifluoromethyl)phenyl)-3-pyridinecarboxamide], in experiment [1], the IC50 is < 500 nM.

With `CC(C)Oc1ccc(NC(=O)c2cc(F)cnc2NCc2ccnc3[nH]ncc23)cc1` [Example 124, 5-Fluoro-N-(4-((1-methylethyl)oxy)phenyl)-2-((1H-pyrazolo[3,4-b]pyridin-4-ylmethyl)amino)-3-pyridinecarboxamide], in experiment [1], the IC50 is < 500 nM.

As to `O=C(Nc1ccc(C(F)(F)F)c(F)c1)c1cc(F)cnc1NCc1ccnc2[nH]ncc12` [Example 128, 5-Fluoro-N-(3-fluoro-4-(trifluoromethyl)phenyl)-2-((1H-pyrazolo[3,4-b]pyridin-4-ylmethyl)amino)-3-pyridinecarboxamide], the IC50 in experiment [1] is < 500 nM.

`CC1(C)CNCc2cc(NC(=O)c3cc(F)cnc3NCc3ccnc4[nH]ncc34)ccc21` [Example 129, N-(4,4-Dimethyl-1,2,3,4-tetrahydro-7-isoquinolinyl)-5-fluoro-2-((1H-pyrazolo[3,4-b]pyridin-4-ylmethyl)amino)-3-pyridinecarboxamide]: in experiment [1], the IC50 is < 500 nM.

For the compound `CC1(C)CCNc2cc(NC(=O)c3cccnc3NCc3ncnc4[nH]ccc34)ccc21` [Example 131, N-(4,4-Dimethyl-1,2,3,4-tetrahydro-7-quinolinyl)-2-((7H-pyrrolo[2,3-d]pyrimidin-4-ylmethyl)amino)-3-pyridinecarboxamide], the IC50 in experiment [1] is < 500 nM.
